Laboratory results published in patent US20240058335A1, “METHODS FOR TREATMENT OF CANCER USING ABL INHIBITORS AND DRUGS TARGETING THE MEVALONATE PATHWAY” (Duke University, priority 2021, published 2024).

Key:
H358 cells = assay: Cell viability dose-response assay (CellTiter-Glo), IC50 calculation; assay type: cell-based, human; settings: H358; dose-response assay; read-out: Calculated IC50
PC9 BrM3 cells = assay: as above; assay type: cell-based, human; settings: PC9 BrM3; dose-response assay; read-out: Calculated IC50

Structure (SMILES): O=C(NCCO)c1cccc(-c2cc(Nc3ccc(OC(F)(F)F)cc3)ncn2)c1 [GNF5]
- IC50 (H358 cells): 15 µM
- IC50 (PC9 BrM3 cells): 10 µM
